The values that follow come from patent US20150344407A1, “FENDILINE DERIVATIVES AND METHODS OF USE THEREOF” (THE BOARD OF REGENTS OF THE UNIVERSITY OF TEXAS SYSTEM, priority 2012, published 2015).

The test system of one test is HPAC cells. In words: Proliferation assay, pancreatic cancer cell line HPAC. The class given is cell-based. The following applies: Homo sapiens, 72 h, CyQUANT, oncogenic mutant K-Ras. The source says: (§1) FIG. 5A-5E—Concentration-response curves of 42, 68, 70, 72 and 73 on proliferation of five pancreatic cancer cell lines. BxPC-3 expresses wild type K-Ras, whereas the others express oncogenic mutant K-Ras. […] EC50 values for their inhibitory effect are tabulated. ND means that the EC50 value could not be determined within the dose range tested. See also Table 5.
(§2) Cell lines: Madine Darby Canine Kidney epithelial cells (MDCK) stably co-expressing mGFP-tagged full length oncogenic mutant K-Ras (GFP-K-RasG12V) and mCherry-tagged to the amino acids 179-189 of H-RasC181S, C184S (mCherry-CAAX, localizes primarily to endomembranes) were grown in DMEM-high glucose/sodium pyruvate/10% FBS. The medium was supplemented with 1× Penicillin/Streptomycin for fluorescence microscopy assays, to avoid any microbial contamination from the test compounds added. KLE and Hec50 cells were maintained in DMEM-F-12 medium supplemented with 10% FBS. Hec-1A and Hec-1B cells were grown in McCoy's 5a medium supplemented with 10% FBS. ESS-1 cells were grown in RPMI 1640 medium supplemented with 20% FBS. MPanc96 cells were grown in DMEM supplemented with 10% FBS, MiaPaCa-2 cells in DMEM supplemented with 10% FBS and 2.5% horse serum and all other cell lines were grown in RPMI 1640 supplemented with 10% FBS. All cancer cell media were supplemented with 1× Penicillin/Streptomycin. All cell lines were grown at 37° C. with 5% CO2.
(§3) Proliferation Assay: Cells were seeded in 96-well plates. After 24 h, fresh growth medium supplemented with 0.1% vehicle (DMSO), or various concentrations of drugs was added and cells were grown for 72 h. Cell numbers were quantified using the CyQUANT® Cell Proliferation Assay Kit (Life Technologies), according to the manufacturer's protocol. Fluorescence measurement was used as a measure of live cell number.
(§4) Based upon the concentration-response curves of five different compounds (42, 68, 70, 72, and 73) were tested for their effects on cell proliferation of five different pancreatic cell lines. These experiments were carried out as described in the Methods and Materials section.

The subject of a further test is MiaPaCa-2 cells. The test can be described thus: Proliferation assay, pancreatic cancer cell line MiaPaCa-2. The class given is cell-based. The following applies: Homo sapiens, MIA PaCa-2; 72 h, CyQUANT; oncogenic mutant K-Ras.
Text: as §1, §2, §3, §4

In test [1] the target is T1, GFP-tagged K-rasG12V (oncogenic K-ras) in MDCK cells (Homo sapiens, UniProt P01116, G12V).
T1 construct: mGFP-tagged full length oncogenic mutant K-Ras (GFP-K-RasG12V); expressed in transfected cells
In words: K-ras mislocalization, confocal fluorescence microscopy with densitometric analysis. It counts as cell-based, canine. The note with it: 48 hours, MDCK cells stably expressing GFP-tagged K-rasG12V, normalized to vehicle-treated control. The procedure: FIGS. 1 & 2—Representative images showing degree of K-ras mislocalization with compound treatment (images corresponds with column 3 of Table 2). MDCK cells stably expressing GFP-tagged K-rasG12V were treated with vehicle or compound (4 μM) for 48 hours and fixed with 4% paraformaldehyde. The coverslips were mounted in Mowiol and imaged by confocal microscopy (Nikon A1) using a 60× objective. The number above each image corresponds the fendiline derivative code.
(§5) To determine the effect of compounds on localization of K-ras, Mardine Darby canine kidney epithelial (MDCK) cells stably expressing GFP-tagged K-rasG12V (oncogenic K-ras) grown on cover slips were treated with vehicle or compound (4 μM) for 48 hours and fixed with 4% paraformaldehyde. The coverslips were mounted in Mowiol and imaged by confocal microscopy (Nikon A1) using a 60× objective. Images were analyzed by ImageJ software. Densitometric analysis was performed on images to determine the degree of K-ras mislocalization. To determine the effect of compounds on K-ras function, MDCK cells stably expressing GFP-tagged K-rasG12V were treated with vehicle or compound (4 μM) for 48 hours. Following treatment, whole cell lysates were prepared and subjected SDS-PAGE and western blotting to quantify the level of phosphorylated ERK, a protein activated downstream of K-ras. All calculations were normalized to vehicle-treated control.
Fluorescence microscopy: 2×10^5 or 1×10^5 cells/well were seeded in 6- or 12-well cell culture plates, respectively, containing glass coverslips. 24 h after seeding, fresh medium containing 1% vehicle (Dimethyl sulfoxide, DMSO) or 4 μM test compound (1:100 dilution, such that DMSO was 1%) was added and incubated for 48 h, following which the cells were fixed with 4% paraformaldehyde and coverslips were mounted in Mowiol. Cells were imaged in the GFP wavelength (488 nm) using a confocal microscope (Nikon A1) with 60× objective. Images were saved in tagged imaged file format (tiff) and analyzed by ImageJ software. The densitometric ratio of plasma membrane localized K-Ras versus total K-Ras was calculated and normalized to vehicle-treated control.

Another test has as its system Hec-1A cells. The test can be described thus: Proliferation assay, endometrial cancer cell line Hec-1A. The class given is cell-based. The following applies: Homo sapiens; 72 h, CyQUANT; Hec-1A expresses oncogenic mutant K-Ras.
Text: (§6) FIG. 4A-4E—Concentration-response curves of 42, 68, 70, 72 and 73 on proliferation of five endometrial cancer cell lines. KLE and ESS-1 express wild type K-Ras and Hec-1A, Hec-1B and Hec50 express oncogenic mutant K-Ras. […] EC50 values for their inhibitory effect are tabulated. ND means that the EC50 value could not be determined within the dose range tested. See also Table 4.
as §2, §3
(§7) Based upon the concentration-response curves of five different compounds (42, 68, 70, 72, and 73) were tested for their effects on cell proliferation of five different endometrial cell lines. These experiments were carried out as described in the Methods and Materials section.

The subject of test [2] is phosphorylated ERK, a protein activated downstream of K-ras. In words: Western immunoblotting for pERK (inhibition of ERK activation). It counts as cell-based, canine. The note with it: Canis lupus familiaris; 4 μM compound, 48 hours, MDCK cells stably expressing GFP-tagged K-rasG12V; whole cell lysates; normalized to vehicle-treated control; read-out: % Inhibition of ERK activation when treated with 4 μM compound. Here is the method: as §5
Western Immunoblotting for pERK: 2×10^5 cells/well were seeded in 6-well cell culture plates. 24 h after seeding, fresh medium containing 1% vehicle (DMSO) or 4 μM test compound (1:100 dilution, such that DMSO was 1%) was added and incubated for 48 h. Cells were lysed in Buffer B (50 mM Tris [pH 7.5], 75 mM NaCl, 25 mM NaF, 5 mM MgCl2, 5 mM EGTA, 1 mM dithiothreitol, 100 μM NaVO4, 1% Nonidet P-40 plus protease inhibitors). SDS-PAGE and immunoblotting with the anti-phospho-p44/42 mitogen-activated protein kinase (MAPK) (ERK1/2) antibody was performed using 20 μg of each whole cell lysate. Signal was detected by enhanced chemiluminescence (SuperSignal; Pierce, Thermo Fisher Scientific, Rockford, Ill.) and imaged by FluorChemQ (Alpha Inotech, San Leandro, Calif.). Quantification of intensities was performed using FluorChemQ software. Results were normalized to vehicle-treated control.

In a further test the test system is MOH cells. The test can be described thus: Proliferation assay, pancreatic cancer cell line MOH. The class given is cell-based. The note with it: 72 h, CyQUANT, oncogenic mutant K-Ras.
Text: as §1, §2, §3, §4

The test system of the next test is MPanc-96 cells. In words: Proliferation assay, pancreatic cancer cell line MPanc-96. The class given is cell-based. The following applies: MPANC96; 72 h, CyQUANT; oncogenic mutant K-Ras.
Text: as §1, §2, §3, §4

For another test, the system named is Hec-1B cells. The test can be described thus: Proliferation assay, endometrial cancer cell line Hec-1B. It counts as cell-based. The following applies: Homo sapiens; 72 h, CyQUANT; Hec-1B expresses oncogenic mutant K-Ras; ND = EC50 could not be determined within the dose range tested.
Text: as §6, §2, §3
Based upon the concentration-response curves of five different compounds (42, 68, 70, 72, and 73) were tested for their effects on cell proliferation of five different endometrial cell lines. […]

The test system of the next test is Hec50 cells. In words: Proliferation assay, endometrial cancer cell line Hec50. The class given is cell-based. The following applies: 72 h, CyQUANT; Hec50 expresses oncogenic mutant K-Ras.
Text: as §6, §2, §3, §7

Another test has as its system chemotaxis. The test can be described thus: Inhibition of chemotaxis. The note with it: preliminary data.

Turning to `COC(=O)[C@H](NCC=C(c1ccccc1)c1ccccc1)c1ccccc1` [Compound 42, (R)-methyl 2-((3,3-diphenylallyl)amino)-2-phenylacetate], the EC50 in the test on HPAC cells was 0.944 µM; in the test with MiaPaCa-2 cells, 2.41 µM; in the test with Hec-1A cells, 0.00739 µM; in the test with MOH cells it was 1.03 µM; in the test with MPanc-96 cells, 1.11 µM; in the test on Hec-1B cells it was 0.524 µM. Besides, in the test on Hec50 cells, the response was half-maximal at 0.423 µM (EC50). For the same compound, the inhibition at 4 µM in test [1] (4 μM compound, read-out: % Mislocalization of K-ras when treated with 4 μM compound) is 50%; in [2] it was 44%.
In the case of `C[C@H](c1cccc(Cl)c1)N(CC=C(c1ccccc1)c1ccccc1)CC=C(c1ccccc1)c1ccccc1` [Compound 70, (R)—N-(1-(3-chlorophenyl)ethyl)-N-(3,3-diphenylallyl)-3,3-diphenylprop-2-en-1-amine], the EC50 with HPAC cells worked out at 0.22 µM; with MiaPaCa-2 cells, 1.5 µM; in the test on Hec-1A cells, 0.0382 µM; in the test with MOH cells, 0.663 µM; in the test with MPanc-96 cells, 0.814 µM; in the test on Hec-1B cells, 10.7 µM. In addition, a half-maximal response with Hec50 cells (EC50) required 3.31 µM.
As to `C(CN(CC=C(c1ccccc1)c1ccccc1)[C@@H]1CCc2ccccc21)=C(c1ccccc1)c1ccccc1` [Compound 73, (R)—N,N-bis(3,3-diphenylallyl)-2,3-dihydro-1H-inden-1-amine], the EC50 is 0.347 µM in the test with HPAC cells; 0.894 µM with MiaPaCa-2 cells; 0.0196 µM in the test on Hec-1A cells; 0.616 µM with MOH cells; 0.239 µM in the test on MPanc-96 cells; 0.33 µM with Hec-1B cells. This compound had an EC50 in the test on Hec50 cells of 0.412 µM.
As for `CC(NCCC(c1ccccc1)c1ccccc1)c1ccccc1` (centres unmarked) [Fendiline, 3,3-diphenyl-N-(1-phenylethyl)propan-1-amine], in test [1], the “% Mislocalization of K-ras when treated with 4 μM compound” value turned out to be 20.53%. Besides, the inhibition at 4 µM in test [2] was 7.37%. For the same compound, the Inhibition of chemotaxis entry with chemotaxis was “effective at inhibiting chemotaxis at picomolar and nanomolar concentrations”.
